Results as given in patent EP4741397A1, “FUSED TRICYCLIC COMPOUND, AND PREPARATION METHOD THEREFOR AND USE THEREOF” (Shenzhen Zhongge Biological Technology Co., Ltd., priority 2023, dated 2025).

How the values were obtained:
[1] = molecular target: T1, SARM1 (Homo sapiens, UniProt Q6SZW1); test: In vitro enzyme inhibition activity (SAM-TIR lysate, NAD/ADPR by HPLC-MS/MS); format: biochemical; details: SAM-TIR lysate (SARM1 408-724) from NRK1-HEK293T cells; 25°C, 3 h with NAD
T1 construct: 408-724 expression plasmid and vector-control customized by SinoBio; host or cells: NRK1-HEK293T cells, transient transfection; crude clarified lysate used as the enzyme
T1 sequence (Q6SZW1 408-724 limits assumed): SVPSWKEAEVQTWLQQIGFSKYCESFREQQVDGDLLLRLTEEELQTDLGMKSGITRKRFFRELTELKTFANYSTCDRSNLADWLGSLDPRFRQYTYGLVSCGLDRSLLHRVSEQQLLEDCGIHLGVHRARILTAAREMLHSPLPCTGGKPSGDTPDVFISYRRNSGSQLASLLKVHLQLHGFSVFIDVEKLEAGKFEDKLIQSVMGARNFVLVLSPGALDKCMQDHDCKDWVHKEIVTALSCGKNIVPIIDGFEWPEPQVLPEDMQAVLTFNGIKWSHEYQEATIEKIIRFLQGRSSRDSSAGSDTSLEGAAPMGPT
Experimental: NRK1-HEK293T cells were seeded at approximately 10 × 10^6 cells/plate into 150 mm culture dishes containing 25 mL of growth medium. […] At the time of transfection, 250 µL of nicotinamide riboside (100 mM) was added to each dish to minimize toxicity from SAM-TIR overexpression. 48 hours after the transfection, the cells were washed three to four times with cold PBS and collected. The cells were resuspended in 0.5 mL of PBS containing protease inhibitors. Cell lysates were prepared by sonication. The lysate was centrifuged at 12500 rpm for 10 min at 4°C to remove cell debris, and protein concentration was determined by bicinchoninic acid (BCA) assay and used to normalize lysate concentration. The aliquots of supernatant were stored at -80°C until use.
• 1) Transfer the compound dilutions into an assay plate by Echo 650; • 2) Add 10µl 2× SAM-TIR lysate to each well; • 3) Seal the assay plate, centrifuge at 1000rpm for 1min, and incubate at 25°C for 30min; • 4) Add 10µl 2× NAD to each well; • 5) Centrifuge at 1000rpm for 1min, and incubate at 25°C for 3h; • 6) Add 40µL trichloroacetic acid to each well to terminate the reaction, mix and shake for 30s, and centrifuge at 4000rpm for 10min; • 7) Take 40µL supernatant from each well and add appropriate amount of ammonia water to adjust the pH; • 8) Detect nicotinamide adenine dinucleotide (NAD) and adenosine diphosphate ribose (ADPR) by HPLC-MS/MS.

[2] = Liver microsomal stability in vitro; format: in vitro ADME; details: liver microsomes, NADPH, 37 °C, 0-45 min
Experimental: 100 mM K-Mg-buffer containing 5 mM MgCl2 was preheated. The spiking solution was prepared by adding 5 µL of 10 mM compound and reference stock solution to 95 µL of acetonitrile (ACN). 1.5 µL of 500 µM spiking solution and 18.75 µL of 20 mg/mL liver microsomes were added to 479.8 µL of K-Mg-buffer. NADPH stock solution (3 mM) was prepared by dissolving NADPH in K-Mg-buffer. 30 µL of 1.5 µM spiking solution containing microsomes was evenly dropped into the assay plate at different time points (0, 5, 15, 30, and 45 min), and pre-incubated at 37 °C for 5 min. At 0 min, 200 µL of ACN containing IS (internal standard, tolbutamid/terfenadine) was added to the wells, then 15 µL of NADPH stock solution (6 mM) was added. For the other time points, the reaction was initiated and timed by adding 15 µL of NADPH stock solution (6 mM) to the wells. The reaction was stopped by adding 200 µL of ACN containing IS to the corresponding plate wells at 5, 15, 30, and 45 min, respectively. After quenching, the plate was shaken at 600 rpm for 10 min and then centrifuged at 4000 rpm for 50 min. 80 µL of supernatant per well was pipetted to a 96-well sample plate containing 160 µL of pure water for UPLC/MS/MS analysis.

[3] = Cell membrane permeability (cell monolayer, A to B and B to A); format: in vitro ADME; details: 120 min, 37°C; for Papp A→B at 2 h, 10 µM: A to B
Experimental: Test compounds were diluted from 10 mM stock solution to a concentration of 10 µM in transport buffer (HBSS + BSA) and applied to the apical or basolateral side of the cell monolayer. The permeability of the test compounds was determined in both direction of from A to B and B to A directions after 120 min incubation at 37°C, 5% CO2 and 95% relative humidity. In addition, the efflux ratio of each compound was determined. The analyte and reference compounds were quantified by LC-MS/MS based on the analyte/IS peak area ratio.

[4] = In vivo brain permeability (plasma and cerebrospinal fluid PK); details: CD1 mice, PO 10 mg/kg; for AUC(0-inf) / Cmax / Tmax / half-life: mouse
Experimental: The test compound was dissolved in the vehicle to prepare a clear solution or a homogeneous suspension. Three mice (CD1 mice) per group were orally administered (PO) at 10 mg/kg. Plasma and cerebrospinal fluid were collected at 1 h, 4 h, and 8 h after oral administration and quantitatively analyzed by LC/MS/MS. Conclusion: At least some of the compounds of the present application have reached very high levels of Cmax and AUC in cerebrospinal fluid and have good in vivo brain permeability. […] Table 7 Plasma and cerebrospinal fluid PK of compound 25

[5] = Pharmacokinetic evaluation in mice; format: in vivo, CD1 mice; details: plasma
Experimental: The test compound was dissolved in the vehicle to prepare a clear solution or a homogeneous suspension. Three mice (CD1 mice) per group were administered 2 mg/kg via the tail vein and 10 mg/kg orally (PO). Blood was collected at 0.083 h, 0.25 h, 0.5 h, 1 h, 2 h, 4 h, 8 h, and 24 h after intravenous administration, and at 0.083 h, 0.25 h, 0.5 h, 1 h, 2 h, 4 h, 8 h and 24 h after oral administration. Plasma samples were centrifuged, and the supernatant was collected to prepare samples for quantitative analysis by LC/MS/MS. Conclusion: At least some of the compounds of the present application (e.g., compound 25) have excellent pharmacokinetic properties in mice (including but not limited to Cl (clearance rate), T1/2 (half-life), Cmax (peak concentration), AUC (area under the drug-time curve), F (bioavailability), etc.). Table 6 The mouse PK properties of compound 25

[6] = Kinetic solubility evaluation; format: physicochemical; details: pbs, pH 7.4, aqueous buffer
Experimental: 10 mM stock solution was prepared by dissolving the test compound in DMSO. 100 mM K2HPO4 solution was prepared by adding 8.71 g K2HPO4 to 500 mL deionized water. 100 mM KH2PO4 solution was prepared by adding 2.05 g KH2PO4 to 150 mL deionized water. 405 mL of 100 mM K2HPO4 and 95 mL of 100 mM KH2PO4 were mixed and adjusted to pH 7.4 with 100 mM K2HPO4/KH2PO4 solution.
16 µL of 10 mM compound stock solution was added to 784 µL of PBS buffer (n = 3) by 96 well plate, and the plate was sealed and shaken at 25°C, 1000 rpm for 1.5 h. After incubation, the solution was transferred to a filter plate. All samples were filtered. 5 µL of the filtrate was taken, added to 5 µL of DMSO and 490 µL acetonitrile aqueous solution containing internal standard (1:1) and mixed. Then the mixed solution was diluted with acetonitrile aqueous solution containing internal standard (1:1) according to the properties of the compound and its response in the mass spectrometer. The dilution factor was adjusted according to the solubility value and UPLC-MS/MS signal response.

[7] = tested on: sciatic nerve; test: Mouse sciatic nerve axotomy (SNA) model; format: in vivo; details: mice, Figure 2
From the text: Methods: Mice were anesthetized with isoflurane, and the skin of the right hind limb was shaved and sterilized with iodine. An incision was made between the knee and hip joints, and the gluteal muscle was carefully separated using a pair of sterile surgical scissors. The sciatic nerve was cut proximally to the thigh with a pair of sterile surgical scissors, and a 1-2 mm segment of the nerve was removed to prevent axonal regeneration into the distal stump. The gluteal muscle was then placed back to its original anatomical position, and the overlying skin was reattached with surgical staples or sutures.
To examine the denervation of the neuromuscular junction (NMJ), the tibialis anterior muscles were dissected from perfused animals and fixed overnight with 4% paraformaldehyde/PBS at 4°C. Immunohistochemical staining was subsequently performed with Neurofilament-L antibody and Synapsin-1 antibody as well as acetylcholine receptor (AchR) markers. Finally, imaging was performed by laser confocal microscope Zeiss LSM710.

[8] = tested on: mouse primary neurons; test: Neuronal injury model based on mouse primary neurons (axotomy, TUJ1 staining); format: cell-based; details: 0.3 µM, compared with the control I-5; axotomy at DIV 10, Figure 1
Experimental: Methods: Neocortices were dissected from the brains of newborn mice at DIV 0 (Day In Vitro 0), digested with 0.05% (w/v) trypsin/EDTA, and incubated at 37°C for 10 min. Neuronal cells obtained after digestion were seeded in cell culture dishes preincubated with poly-D-lysine in Neurobasal/B-27 medium (Neurobasal medium supplemented with 1% (v/v) B-27, 2 mM glutamine, 100 U/ml penicillin, and […] streptomycin). Starting from DIV 3, a half of the medium was replaced with fresh Neurobasal/B-27 medium every two days. At DIV 10, the cultures were subjected to axotomy and compound administration. The cells were fixed with 4% paraformaldehyde the day after axotomy and subjected to cell immunofluorescence staining for TUJ1. Confocal imaging of axons was performed using a Zeiss LSM710 laser confocal microscope.

O=C1C(Cc2ccc(Cl)c(F)c2)CCN1c1nc2ccc3cnccc3c2[nH]1 (single isomer, unassigned) [Cpd. 18]
IC50 [1]: < 0.15 µM

O=C1C(Cc2ccc(Cl)c(F)c2)CCN1c1nc2ccc3cnccc3c2[nH]1 (single isomer, unassigned) [Cpd. 19]
IC50 [1]: < 0.15 µM

O=C1C(Cc2ccc(Cl)cc2)CCN1c1nc2ccc3cnccc3c2[nH]1 (stereo not shown) [Cpd. 2]
IC50 [1]: < 0.15 µM

O=C1C(Cc2ccc(F)c(Cl)c2)CCN1c1nc2ccc3cnccc3c2[nH]1 (stereo not shown) [Cpd. 3]
IC50 [1]: 0.5 to 1 µM

O=C1C(Cc2cc(F)c(Cl)c(F)c2)CCN1c1nc2ccc3cnccc3c2[nH]1 (stereo not shown) [Cpd. 4]
half-life [2]: 28.9 min
efflux ratio at 2 h, 10 µM [3]: 1.15
Papp A→B at 2 h, 10 µM [3]: 11 ×10⁻⁶ cm/s
IC50 [1]: < 0.15 µM

O=C1C(Cc2ccc(Cl)c(F)c2)CCN1c1nc2ccc3cnccc3c2[nH]1 (stereo not shown) [Cpd. 5]
IC50 [1]: < 0.15 µM

O=C1C(Cc2ccc(Cl)c(Cl)c2)CCN1c1nc2ccc3cnccc3c2[nH]1 (stereo not shown) [Cpd. 6]
IC50 [1]: 0.15 to 0.5 µM

O=C1C(Cc2cnc(Cl)c(F)c2)CCN1c1nc2ccc3cnccc3c2[nH]1 (stereo not shown) [Cpd. 7]
IC50 [1]: 0.15 to 0.5 µM

O=C(CCc1ccc(Cl)cc1)Nc1nc2ccc3cnccc3c2[nH]1 [Cpd. 8]
IC50 [1]: < 0.15 µM

O=C(CCc1ccc(Cl)c(F)c1)Nc1nc2ccc3cnccc3c2[nH]1 [Cpd. 9]
half-life [2]: 19.7 min
IC50 [1]: < 0.15 µM

O=C(CCc1cnc(Cl)c(F)c1)Nc1nc2ccc3cnccc3c2[nH]1 [Cpd. 10]
half-life [2]: 21.1 min
IC50 [1]: 0.15 to 0.5 µM

C=C(CCc1ccc(Cl)cc1)C(=O)Nc1nc2ccc3cnccc3c2[nH]1 [Cpd. 11]
IC50 [1]: > 1 µM

O=C(CCc1ccc(Cl)cc1)Nc1[nH]nc2c1ccc1cnccc12 [Cpd. 12]
IC50 [1]: 0.5 to 1 µM

O=C1C(Cc2cc(F)c(Cl)c(F)c2)CCCN1c1nc2ccc3cnccc3c2[nH]1 (stereo not shown) [Cpd. 14]
IC50 [1]: < 0.15 µM

O=C1C(Cc2ccc(Cl)c(F)c2)CCCN1c1nc2ccc3cnccc3c2[nH]1 (stereo not shown) [Cpd. 15]
IC50 [1]: < 0.15 µM

O=C1C(Cc2ccc(Cl)c(F)c2)CCN1c1nc2c(ccc3cnccc32)o1 (stereo not shown) [Cpd. 20]
IC50 [1]: < 0.15 µM

O=C1C(Cc2ccc(Cl)c(F)c2)CCCN1c1nc2c(ccc3cnccc32)o1 (stereo not shown) [Cpd. 21]
IC50 [1]: 0.15 to 0.5 µM

O=C(CCc1ccc(Cl)c(F)c1)Nc1nc2c(ccc3cnccc32)o1 [Cpd. 22]
IC50 [1]: 0.15 to 0.5 µM

O=C(CCc1ccc(Cl)c(F)c1)Nc1nc2c([nH]1)COc1cnccc1-2 [Cpd. 23]
half-life [2]: 37.4 min
IC50 [1]: < 0.15 µM

O=C1C(Cc2ccc(Cl)c(F)c2)CCN1c1nc2c([nH]1)COc1cnccc1-2 (stereo not shown) [Cpd. 24]
IC50 [1]: < 0.15 µM

O=C1C(Cc2ccc(Cl)c(F)c2)CCCN1c1nc2c([nH]1)COc1cnccc1-2 (stereo not shown) [Cpd. 25]
AUCbrain/AUCplasma [4]: 0.71
AUC(0-inf) ([4]; Cerebrospinal fluid PK): 6900 ng·h/mL
Cmax ([4]; Cerebrospinal fluid PK): 2200 ng/mL
Tmax ([4]; Cerebrospinal fluid PK): 60 min
half-life ([4]; Cerebrospinal fluid PK): 84.6 min
AUC(0-inf) ([4]; Plasma PK): 9700 ng·h/mL
Cmax ([4]; Plasma PK): 3090 ng/mL
Tmax ([4]; Plasma PK): 60 min
half-life ([4]; Plasma PK): 84 min
AUC(0-inf) ([5]; mouse IV (2 mg/kg)): 2210 ng·h/mL
C0 ([5]; mouse IV (2 mg/kg)): 2110 ng/mL
clearance ([5]; mouse IV (2 mg/kg)): 15.1 mL/min/kg
half-life ([5]; mouse IV (2 mg/kg)): 79.8 min
Vd ([5]; mouse IV (2 mg/kg), read-out: Vss): 1.31 L/kg
AUC(0-inf) ([5]; mouse PO (10 mg/kg)): 9820 ng·h/mL
Cmax ([5]; mouse PO (10 mg/kg)): 3000 ng/mL
Tmax ([5]; mouse PO (10 mg/kg)): 25 min
half-life ([5]; mouse PO (10 mg/kg)): 110 min
bioavailability ([5]; mouse PO (10 mg/kg) vs IV (2 mg/kg)): 89%
half-life [2]: 26.1 min
solubility at […] [6]: > 50 µg/mL
protection of axons from injury-induced axonal degeneration [7]: significantly protect axons from injury-induced axonal degeneration
efflux ratio at 2 h, 10 µM [3]: 0.9
Papp A→B at 2 h, 10 µM [3]: 7.56 ×10⁻⁶ cm/s
neuron-protecting activity (axonal loss after axonal injury) [8]: stronger neuron-protecting activity
IC50 [1]: < 0.15 µM
